Assay results from patent US8017638B2, “Isoxazole derivative and isothiazole derivative having inhibitory activity on 11β-hydroxysteroid dehydrogenase type 1” (Shionogi & Co., Ltd., priority 2006, dated 2011).

Experiments:
[1] = biological target: recombinant mouse 11β-HSD1 (Mus musculus, UniProt P50172); assay: Enzyme activity assay on mouse 11β-HSD1 (HTRF, corticosterone production); format: biochemical; settings: recombinant mouse 11β-HSD1, 2 μM 11-dehydrocorticosterone as substrate, 2 hours at 37° C., read-out: mouseIC50
Experimental: Evaluation of 11β-HSD1 Inhibitors (Enzyme Activity Assay on Mouse 11β-HSD1)
Enzymatic activity for mouse 11β-HSD1 activity was determined in a 10 μl final volume of assay mixture containing 50 mM sodium phosphate buffer (pH 7.6), 1 mg/ml bovine serum albumin, 0.42 mg/ml NADPH, 1.26 mg/ml glucose-6-phosphate, glucose-6-phosphate dehydrogenase, test compound, recombinant mouse 11β-HSD1, and 2 μM 11-dehydrocorticosterone as substrate. The reaction was started with the addition of 11-dehydrocorticosterone. After incubation for 2 hours at 37° C., 5 μl of europium cryptate-labelled anti-cortisol antibody and 5 μl of XL665-labeled cortisol were added. After further incubation for 2 hours at room temperature, the HTRF signal was measured. The corticosterone production was quantitated by a standard curve generated with several known concentrations of corticosterone in each assay.
(§1) The amount of corticosterone production without compounds served as control, and the percent inhibition by compound at each concentration was calculated. The IC50 value of the compound for 11β-HSD1 was obtained using the inhibition curve generated by plotting the percent inhibition versus the concentration of test compound.

[2] = biological target: recombinant human 11β-HSD1 (Homo sapiens, UniProt P28845); assay: Enzyme activity assay on human 11β-HSD1 (HTRF, cortisol production); format: biochemical; settings: recombinant human 11β-HSD1, 5 μM cortisone as substrate, 2 hours at 37° C., read-out: humanIC50
Experimental: Evaluation of 11β-HSD1 Inhibitors (Enzyme Activity Assay on Human 11β-HSD1)
Enzymatic activity for human 11β-HSD1 was determined in a 10 μl final volume of assay mixture containing 50 mM sodium phosphate buffer (pH 7.6), 1 mg/ml bovine serum albumin, 0.42 mg/ml NADPH, 1.26 mg/ml glucose-6-phosphate, glucose-6-phosphate dehydrogenase, test compound, recombinant human 11β-HSD1, and 5 μM cortisone as substrate. The reaction was started with the addition of cortisone. After incubation for 2 hours at 37° C., 5 μl of europium cryptate-labelled anti-cortisol antibody and 5 μl of XL665-labeled cortisol were added. After further incubation for 2 hours at room temperature, the homogeneous time-resolved fluorescence (HTRF) signal was measured. The cortisol production was quantitated by a standard curve generated with several known concentrations of cortisol in each assay.
as §1, with “amount of cortisol production without” for “amount of corticosterone production without”, “inhibition by test compound at” for “inhibition by compound at”

Chain of recombinant mouse 11β-HSD1 (P50172 whole entry): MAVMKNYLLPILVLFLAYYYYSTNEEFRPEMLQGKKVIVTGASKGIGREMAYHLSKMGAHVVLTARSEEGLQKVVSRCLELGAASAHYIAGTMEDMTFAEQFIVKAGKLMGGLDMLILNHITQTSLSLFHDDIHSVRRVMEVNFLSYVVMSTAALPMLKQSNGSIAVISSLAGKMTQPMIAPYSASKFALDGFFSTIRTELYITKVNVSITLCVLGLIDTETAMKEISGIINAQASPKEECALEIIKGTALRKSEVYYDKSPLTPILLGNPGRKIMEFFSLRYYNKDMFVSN
Chain of recombinant human 11β-HSD1 (P28845 whole entry): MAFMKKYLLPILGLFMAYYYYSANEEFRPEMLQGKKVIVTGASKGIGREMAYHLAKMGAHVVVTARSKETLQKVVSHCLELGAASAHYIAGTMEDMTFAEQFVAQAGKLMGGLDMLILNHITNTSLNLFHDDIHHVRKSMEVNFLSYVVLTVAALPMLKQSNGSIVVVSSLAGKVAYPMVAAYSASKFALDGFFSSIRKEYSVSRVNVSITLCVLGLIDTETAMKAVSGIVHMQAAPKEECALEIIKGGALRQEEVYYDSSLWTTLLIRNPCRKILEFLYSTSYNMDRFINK

IC50 [1] [nM] | IC50 [2] [nM] | Structure (SMILES)
500 | 180 | CCCSc1c(OCC2CCNCC2)noc1C(=O)NC1C2CC3CC(C2)CC1C3 (stereo not drawn) [Compound 9c]
1600 | 140 | CC(C)Sc1c(OCC2CCNCC2)noc1C(=O)NC1C2CCCC1CCC2 (stereo not drawn) [Compound 12b]
38 | 260 | CC(C)Sc1c(OCC(C)(C)NC(=O)NCCN)noc1C(=O)NC1C2CC3CC(C2)CC1C3 (stereo not drawn) [Compound 27]
330 | 43 | CC(C)Sc1c(OCC(C)(C)N)noc1C(=O)NC1C2CC3CC(C2)CC1C3 (stereo not drawn) [Compound 29]
49 | 35 | CC(C)Sc1c(OCC(C)(C)C(=O)N2CCNCC2)noc1C(=O)NC1C2CC3CC(C2)CC1C3 (stereo not drawn) [II-18]
160 | 51 | CC(C)Sc1c(OCC(F)(F)C(=O)NCCN)noc1C(=O)NC1C2CC3CC(C2)CC1C3 (stereo not drawn) [II-25]
23 | 71 | CC(C)Sc1c(OCC(C)(C)NC(=O)C2(N)CC2)noc1C(=O)NC1C2CC3CC(C2)CC1C3 (stereo not drawn) [II-49]
6.5 | 77 | CC(C)CSc1c(OCC(C)(C)CCCN)noc1C(=O)NC1C2CC3CC(C2)CC1C3 (stereo not drawn) [II-72]
21 | 95 | COCC(C)(C)COc1noc(C(=O)NC2C3CC4CC(C3)CC2C4)c1SC(C)C (stereo not drawn) [II-117]
33 | 86 | CC(C)Sc1c(OCC(C)(C)C#N)noc1C(=O)N[C@H]1C2CC3CC1C[C@](O)(C3)C2 [II-130]
27 | 10 | O=C(NC1(COc2noc(C(=O)N[C@H]3C4CC5CC3C[C@](O)(C5)C4)c2SC2CCCC2)CC1)c1ccc(Cl)cc1Cl [II-150]
14 | 25 | CC(C)(COc1noc(C(=O)N[C@H]2C3CC4CC2C[C@](O)(C4)C3)c1SC1CCCC1)N1CCOC1=O [II-153]
